Values quoted from earlier work in US20260276655A1, “BIOMARKERS OF AMYOTROPHIC LATERAL SCLEROSIS AND USES THEREOF” (The Methodist Hospital, priority 2023, published 2026).

What was measured:
ALS patients = conditions: administered to ALS patients
[1] = normal physiological conditions

Compound	outcome of phase 3 clinical trial (ALS patients)	half-life [1]
CO/N=C(\C(=O)N[C@@H]1C(=O)N2C(C(=O)O)=C(CSc3nc(=O)c(=O)[nH]n3C)CS[C@H]12)c1csc(N)n1 [ceftriaxone, (6R,7R)-7-[[(2Z)-2-(2-amino-1,3-thiazol-4-yl)-2-methoxyiminoacetyl]amino]-3-[(2-methyl-5,6-dioxo-1H-1,2,4-triazin-3-yl)sulfanylmethyl]-8-ox o-5-thia-1-azabicyclo[4.2.0]oct-2-ene-2-carboxylic acid]	failed	
CCCCCC(O)/C=C/C=O (centres unmarked) [4-HNE, 4-hydroxynonenal]		less than 2 minutes
